Data reported in patent publication US20250270203A1, “NICOTINIC ACETYLCHOLINE RECEPTOR LIGANDS” (Philip Morris Products S.A., priority 2022, published 2025).
pKi: −log10 of the molar value. Read-outs that look alike come from different tables or passages of the source.

Key:
[1] = target: human α7 nAChR (Homo sapiens (Human), UniProt P36544); test: biochemical; assay type: binding; conditions: for nAChR subtype preference / selectivity: in words, from Ki at α7, α4β2, α3β4
[2] = target: α4β2 nAChR (Homo sapiens (Human), UniProt P17787+P43681); test: nAChR binding affinity, α4β2 subtype
α4β2 nAChR, sequence (P43681 29-627): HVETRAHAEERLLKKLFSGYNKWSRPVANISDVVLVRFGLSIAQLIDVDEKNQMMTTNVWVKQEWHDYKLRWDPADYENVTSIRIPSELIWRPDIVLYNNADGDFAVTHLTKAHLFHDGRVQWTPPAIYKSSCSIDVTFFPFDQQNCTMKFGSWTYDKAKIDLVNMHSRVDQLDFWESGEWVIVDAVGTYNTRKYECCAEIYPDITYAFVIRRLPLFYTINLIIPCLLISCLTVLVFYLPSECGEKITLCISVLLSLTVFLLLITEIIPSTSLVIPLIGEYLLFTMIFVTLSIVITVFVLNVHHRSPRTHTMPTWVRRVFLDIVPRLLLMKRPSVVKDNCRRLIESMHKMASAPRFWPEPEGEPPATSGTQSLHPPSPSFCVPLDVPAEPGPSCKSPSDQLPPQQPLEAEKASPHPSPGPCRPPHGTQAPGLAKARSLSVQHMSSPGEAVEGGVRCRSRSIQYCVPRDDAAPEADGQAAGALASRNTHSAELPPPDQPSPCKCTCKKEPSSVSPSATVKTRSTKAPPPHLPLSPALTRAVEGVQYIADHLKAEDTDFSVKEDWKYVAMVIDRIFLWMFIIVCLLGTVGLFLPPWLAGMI
α4β2 nAChR, sequence (P17787 26-502): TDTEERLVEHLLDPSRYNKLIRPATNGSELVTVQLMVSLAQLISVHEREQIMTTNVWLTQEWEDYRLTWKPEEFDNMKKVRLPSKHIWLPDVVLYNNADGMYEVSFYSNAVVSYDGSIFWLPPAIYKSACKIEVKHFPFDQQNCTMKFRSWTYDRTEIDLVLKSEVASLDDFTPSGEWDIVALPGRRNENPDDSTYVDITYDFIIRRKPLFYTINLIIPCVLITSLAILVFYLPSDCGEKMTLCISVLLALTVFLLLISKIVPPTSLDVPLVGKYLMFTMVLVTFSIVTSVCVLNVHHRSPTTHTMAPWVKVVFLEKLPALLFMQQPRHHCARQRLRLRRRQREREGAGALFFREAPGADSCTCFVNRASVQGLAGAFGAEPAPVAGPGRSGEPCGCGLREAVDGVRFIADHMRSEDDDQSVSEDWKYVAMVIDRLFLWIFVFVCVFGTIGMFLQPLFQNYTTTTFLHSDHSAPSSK

[3] = target: α3β4 nAChR (Homo sapiens (Human), UniProt P30926+P32297); test: nAChR binding affinity, α3β4 subtype; conditions: Table 2
α3β4 nAChR, sequence (P32297 32-505): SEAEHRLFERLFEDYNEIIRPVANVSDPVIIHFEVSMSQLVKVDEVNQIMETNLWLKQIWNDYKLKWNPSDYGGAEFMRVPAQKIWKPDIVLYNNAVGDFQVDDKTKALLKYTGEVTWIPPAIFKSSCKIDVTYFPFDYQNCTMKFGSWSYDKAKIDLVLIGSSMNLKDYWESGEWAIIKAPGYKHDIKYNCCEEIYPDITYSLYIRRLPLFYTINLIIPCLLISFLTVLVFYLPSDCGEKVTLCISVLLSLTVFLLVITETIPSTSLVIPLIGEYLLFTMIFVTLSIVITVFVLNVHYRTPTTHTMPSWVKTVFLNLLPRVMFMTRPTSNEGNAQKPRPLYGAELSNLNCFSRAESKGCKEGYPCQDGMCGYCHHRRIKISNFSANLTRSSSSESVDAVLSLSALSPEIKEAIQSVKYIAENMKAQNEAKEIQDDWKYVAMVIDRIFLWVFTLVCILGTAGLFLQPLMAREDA
α3β4 nAChR, sequence (P30926 22-498): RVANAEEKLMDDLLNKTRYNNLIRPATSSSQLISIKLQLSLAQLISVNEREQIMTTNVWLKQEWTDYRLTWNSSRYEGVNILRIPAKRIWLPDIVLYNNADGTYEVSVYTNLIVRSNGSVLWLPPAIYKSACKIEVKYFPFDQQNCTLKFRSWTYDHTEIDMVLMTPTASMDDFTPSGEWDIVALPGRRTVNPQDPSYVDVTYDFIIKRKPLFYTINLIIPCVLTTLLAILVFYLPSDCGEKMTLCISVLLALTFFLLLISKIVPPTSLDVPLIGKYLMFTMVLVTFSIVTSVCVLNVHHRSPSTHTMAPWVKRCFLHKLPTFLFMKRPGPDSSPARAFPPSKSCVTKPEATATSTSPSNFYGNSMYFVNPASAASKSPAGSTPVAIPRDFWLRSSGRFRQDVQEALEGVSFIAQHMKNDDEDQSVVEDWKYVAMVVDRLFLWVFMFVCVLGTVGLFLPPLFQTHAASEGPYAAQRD

[4] = tested on: citric acid-induced cough in guinea pigs; test: Citric acid-induced cough in guinea pigs, dry powder insufflation, nebulisation, oral and intraperitoneal administration (Example 28); assay type: in vivo, guinea pig
Procedure: The mean concentration of citric acid was 1156.0±111.8 μg/L for both routes.
Regarding oral administration, the duration between compound administration and start of citric acid challenge was 30 minutes. The data was compared to atmospheric air (control).
Regarding intraperitoneal administration, compounds were administered approximately 10-15 mins before the cough challenge (citric acid inhalation challenge). Test compounds were dosed at between 1-30 mg/kg (as described herein for each experiment) while the positive control (codeine) was dosed at 30 mg/kg, in each case using a dosing volume of 10 ml/kg, by a single intraperitoneal injection.

[5] = tested on: citric acid-induced cough in guinea pigs; test: Citric acid-induced cough in guinea pigs, intraperitoneal injection (Example 27)
Procedure: As depicted in FIG. 1B and FIG. 1C, cough induction is conducted by placing guinea pigs into a whole body plethysmograph (WBP) equipped with a Aeroneb™ vibrating mesh nebulizer, and including pressure transducers and detection equipment (EMKA technologies). A primary microphone is supplied (EMKA Technologies) for acoustic confirmation of cough frequency in the form of a digital trace using the EMKA software.
A secondary microphone (T1 True Wireless Earphone, QCY®) also is placed in the chamber and connected to a smartphone via Bluetooth to enable the observers to hear the audible sounds during the test. A bias flow rate of 2 L/min is used to continuously draw either atmospheric air (during the fresh air period) or aerosolized citric acid from the nebulizer into the WBP and expel it out through an exhaust pipe. Chamber pressure in the WBP is set to be between −10 to −30 Pa relative to ambient pressure.
Prior to the citric acid challenge, the guinea pigs are administered (intraperitoneal injection) with vehicle control, positive control or test compound (where applicable) with different dosage (Table 3) and placed individually into the WBP for at least 5 minutes in order to habituate.
The procedure was as follows: Injection→guinea pig in box having citric acid for 10 mins (counting the cough)→box then fill with air for 5 mins (counting the cough)→guinea pig moved to recovery cage.
Appropriate concentration of citric acid is used to generate aerosol and deliver to WBP for 10 minutes with constant recording of pressure measurements. The mean concentration of citric acid was 1283.1±137.2 μg/L. Upon completion of citric acid challenge, the guinea pig is allowed to recover and continue recording of cough counts for another 5 minutes. Subsequently, the guinea pigs are closely monitored in recovery cage for full recovery from the challenge and that no adverse events were present before returning the animals to its home cage. Cough counts (CCnt) are recorded over a period of at least 10 mins, starting from citric acid stimulation and cough incubation period (CIP) are defined as the time it takes to cough for the first time after citric acid stimulation.
The data were analysed using Oneway ANOVA (* p<0.05, ** p<0.01, *** p<0.001, **** p<0.0001) when compared to saline control, and each column represents Mean±SEM.

[6] = Table 1, [125I] α-Bungarotoxin, Cheng-Prusoff, read-out: α7 Ki

human α7 nAChR, sequence (P36544 23-502 limits assumed): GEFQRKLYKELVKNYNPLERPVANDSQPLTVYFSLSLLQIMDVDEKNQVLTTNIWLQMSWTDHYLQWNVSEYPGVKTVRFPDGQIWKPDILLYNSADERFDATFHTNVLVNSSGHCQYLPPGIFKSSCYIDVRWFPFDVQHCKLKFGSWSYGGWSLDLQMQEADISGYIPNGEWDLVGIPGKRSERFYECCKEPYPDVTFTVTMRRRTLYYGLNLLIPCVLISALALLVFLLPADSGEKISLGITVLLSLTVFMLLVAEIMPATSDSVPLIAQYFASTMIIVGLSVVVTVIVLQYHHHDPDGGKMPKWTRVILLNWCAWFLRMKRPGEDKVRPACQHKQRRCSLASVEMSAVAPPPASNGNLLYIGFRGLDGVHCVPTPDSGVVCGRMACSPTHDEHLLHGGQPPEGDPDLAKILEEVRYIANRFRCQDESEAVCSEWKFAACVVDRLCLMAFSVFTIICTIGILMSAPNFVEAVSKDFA

Compound | pKi [1] | pKi ([2]; Table 2, read-out: Ki α4β2) | pKi [3] | also measured
c1cncc(C[C@@H]2[C@@H](Oc3cnc(-c4ccc5[nH]ccc5c4)cn3)C3CCN2CC3)c1 (racemic) [Compound 9, trans-5-[5-[2-(3-Pyridylmethyl)quinuclidin-3-yl]oxypyrazin-2-yl]-1H-indole] | 6.62 |  |  | 
c1cncc(C[C@@H]2[C@@H](Oc3ccc(-c4ccc5[nH]ccc5c4)nn3)C3CCN2CC3)c1 (racemic) [Compound 11, trans-5-[6-[2-(3-Pyridylmethyl)quinuclidin-3-yl]oxypyridazin-3-yl]-1H-indole] | 8.85 |  |  | pKi [2]: 7.14
c1cncc(C[C@@H]2[C@@H](Oc3nnc(-c4ccc5[nH]ccc5c4)s3)C3CCN2CC3)c1 (racemic) [Compound 16, trans-2-(1H-Indol-5-yl)-5-[2-(3-pyridylmethyl)quinuclidin-3-yl]oxy-1,3,4-thiadiazole] |  | 6.66 | 6.36 | 
c1ccc(-c2nnc(O[C@H]3C4CCN(CC4)[C@@H]3Cc3cccnc3)s2)cc1 (racemic) [Compound 20, trans-2-Phenyl-5-[2-(3-pyridylmethyl)quinuclidin-3-yl]oxy-1,3,4-thiadiazole] | 6.49 |  |  | 
c1cncc(C[C@@H]2[C@H](Oc3ccc(-c4ccc5[nH]ccc5c4)nn3)C3CCN2CC3)c1 (relative stereo) [Compound 7, cis-5-[6-[2-(3-Pyridylmethyl)quinuclidin-3-yl]oxypyridazin-3-yl]-1H-indole] | 7.23 |  | 6.70 | nAChR subtype preference / selectivity [1]: preferably binds to the α4β2 nAChR
c1cncc(C[C@@H]2[C@@H](Oc3cnc(-c4ccc5[nH]ccc5c4)cn3)C3CCN2CC3)c1 (relative stereo) [Compound 9, trans-5-[5-[2-(3-Pyridylmethyl)quinuclidin-3-yl]oxypyrazin-2-yl]-1H-indole] |  | 6.64 | 6.40 | 
c1cncc(C[C@@H]2[C@@H](Oc3ccc4ccccc4n3)C3CCN2CC3)c1 (relative stereo) [Compound 18, trans-2-[2-(3-Pyridylmethyl)quinuclidin-3-yl]oxyquinoline] | 5.53 |  |  | 
c1ccc(-c2ccc(O[C@H]3C4CCN(CC4)[C@@H]3Cc3cccnc3)nn2)cc1 (relative stereo) [Compound 19, trans-3-(6-Phenylpyridazin-3-yl)oxy-2-(3-pyridylmethyl) quinuclidine] | 7.00 |  |  | 
c1ccc(-c2nnc(O[C@H]3C4CCN(CC4)[C@@H]3Cc3cccnc3)s2)cc1 (relative stereo) [Compound 20, trans-2-Phenyl-5-[2-(3-pyridylmethyl)quinuclidin-3-yl]oxy-1,3,4-thiadiazole] | 6.49 |  |  | 
c1cncc(C[C@@H]2[C@@H](Oc3ccc(-c4ccc5[nH]ccc5c4)nn3)C3CCN2CC3)c1 [2R,3S-11, (2R,3S)-5-[6-[2-(3-Pyridylmethyl)quinuclidin-3-yl]oxypyridazin-3-yl]-1H-indole] |  | 6.14 | 5.92 | pKi ([1]; Table 2, read-out: Ki α7): 7.47
c1cncc(C[C@H]2[C@H](Oc3ccc(-c4ccc5[nH]ccc5c4)nn3)C3CCN2CC3)c1 [2S,3R-11, (2S,3R)-5-[6-[2-(3-Pyridylmethyl)quinuclidin-3-yl]oxypyridazin-3-yl]-1H-indole] |  | 7.11 | 6.11 | pKi ([1]; Table 2, read-out: Ki α7): 9.00; nAChR subtype preference / selectivity [1]: optimal and selective interaction with α7 nAChR
c1cncc(C[C@@H]2[C@@H](Oc3ccc(-c4ccc5[nH]ccc5c4)cn3)C3CCN2CC3)c1 [Compound 5, trans-5-[6-[2-(3-Pyridylmethyl)quinuclidin-3-yl]oxy-3-pyridyl]-1H-indole] | 7.24 |  |  | 
c1cncc(C[C@@H]2[C@@H](Oc3ccc(-c4ccc5[nH]ccc5c4)nn3)C3CCN2CC3)c1 [Compound 11, trans-5-[6-[2-(3-Pyridylmethyl)quinuclidin-3-yl]oxypyridazin-3-yl]-1H-indole] | 9.00 |  |  | 
Nc1nc2ccc(-c3ccc(OC4C5CCN(CC5)C4Cc4cccnc4)nn3)cc2s1 (stereo not drawn) [Compound 12, trans-6-[6-[2-(3-Pyridylmethyl)quinuclidin-3-yl]oxypyridazin-3-yl]-1,3-benzothiazol-2-amine] |  | 7.30 | 5.97 | pKi [1, 6]: 7.72; pKi ([1]; Table 2, read-out: Ki α7): 7.73
c1cncc(C[C@@H]2[C@@H](Oc3nnc(-c4ccc5[nH]ccc5c4)s3)C3CCN2CC3)c1 [Compound 16, trans-2-(1H-Indol-5-yl)-5-[2-(3-pyridylmethyl)quinuclidin-3-yl]oxy-1,3,4-thiadiazole] |  |  |  | citric acid-induced cough counts compared with air control ([4]; dry powder insufflated, 1 mg/kg, p=0.0004): significantly reduced; citric acid-induced cough counts compared with air control ([4]; dry powder insufflated, 2 mg/kg, p=0.0042): significantly reduced; citric acid-induced cough counts compared with air control ([4]; nebulised, 0.4 mg/kg, 58 min exposure, p=0.0023): significantly reduced; citric acid-induced cough counts compared with air control ([4]; orally administered, 9.5 mg/kg, p<0.05): significantly reduced; cough frequency compared to negative control (saline) ([4]; prophylactic intraperitoneal treatment at 1, 3 and 9.5 mg/kg, FIG. 8): suppression of cough frequency; pKi [1, 6]: 7.96; number of coughs (citric acid-induced cough counts) ([5]; i.p. 1 mg/kg, p<0.0001 vs saline control (17 coughs)): 5; cough incubation period ([5]; i.p. 1 mg/kg, p<0.001 vs saline control (206 sec)): 548 s; number of coughs (citric acid-induced cough counts) ([5]; i.p. 3 mg/kg, p<0.001 vs saline control (17 coughs)): 5; cough incubation period ([5]; i.p. 3 mg/kg, p<0.01 vs saline control (206 sec)): 455 s; number of coughs (citric acid-induced cough counts) ([5]; i.p. 9.5 mg/kg, p<0.01 vs saline control (17 coughs)): 7; cough incubation period ([5]; i.p. 9.5 mg/kg, p<0.05 vs saline control (206 sec)): 489 s
